Laboratory results taken from US4107424A, “1-N-[(S)-α-hydroxy-ω-aminoacyl] derivatives of 3',4'-dideoxykanamycin B and 3'-deoxykanamycin B antibiotics” (Zaidan Hojin Biseibutsu Kagaku Kenkyu Kai, priority 1972, dated 1978).
Converted amounts (≈) assume the structure as drawn. Like-named read-outs stand apart in the source and are kept apart here.

Assays:
[1] = tested on: Escherichia coli K-12 JR 66/W 677; assay: Minimal inhibitory concentration, agar dilution streak method; assay type: cell-based; details: Escherichia coli, 18 h
Experimental: (§1) *Agar Agar dilution streak method (nutrient agar, 37° C, 18 hours)
(§2) *Agar dilution streak method (nutrient agar, 37° C, 18 hours).

[2] = tested on: Escherichia coli K-12 LA 290 R 55; assay: as above; assay type: cell-based; details: 18 h
Experimental: as §1, §2

[3] = tested on: Escherichia coli K-12 ML 1410; assay: as above; assay type: cell-based; details: K12ML1410, nutrient agar, 37° C, 18 hours
Experimental: as §1, §2

[4] = tested on: Escherichia coli K-12 ML 1629; assay: as above; assay type: cell-based; details: K12ML1629, nutrient agar, 37° C, 18 hours
Experimental: as §1, §2

[5] = tested on: Escherichia coli K-12 W 677; assay: as above; assay type: cell-based; details: K12W677, nutrient agar, 37° C, 18 hours
Experimental: as §1, §2

[6] = tested on: Pseudomonas aeruginosa A 3; assay: as above; assay type: cell-based; details: A3, nutrient agar, 37° C, 18 hours
Experimental: as §1, §2

[7] = tested on: Pseudomonas aeruginosa GN 315; assay: as above; assay type: cell-based; details: GN315, nutrient agar, 37° C, 18 hours
Experimental: as §1, §2

[8] = tested on: Pseudomonas aeruginosa No.12; assay: as above; assay type: cell-based; details: nutrient agar, 37° C, 18 hours
Experimental: as §1, §2

[9] = tested on: Staphylococcus aureus FDA 209P; assay: as above; assay type: cell-based; details: FDA209P, nutrient agar, 37° C, 18 hours
Experimental: as §1, §2

[10] = tested on: gram-positive and gram-negative bacteria; assay: Antibacterial activity (in words); assay type: cell-based; details: for antibacterial activity compared with parent or reference substance: sensitive (and resistant) bacteria; for antibacterial activity: various gram-positive and gram-negative bacteria, including resistant strains
Experimental: (§3) [α]D^22 + 38°, (c 0.85, water).

in vivo = details: mouse, iv
mice = assay: Acute intravenous toxicity (LD50) in mice; details: in words
[11] = tested on: Pseudomonas aeruginosa 99; assay: Minimal inhibitory concentration, agar dilution streak method; assay type: cell-based; details: nutrient agar, 37° C, 18 hours
Experimental: as §3, §1, §2

[12] = tested on: Escherichia coli K-12 LA 290 R 56; assay: as above; assay type: cell-based; details: 18 h
Experimental: as §1, §2

[13] = tested on: Escherichia coli K-12 LA 290 R 64; assay: as above; assay type: cell-based; details: nutrient agar, 37° C, 18 hours
Experimental: as §1, §2

[14] = tested on: Escherichia coli K-12 ML 1410 R 81; assay: as above; assay type: cell-based; details: 18 h
Experimental: as §1, §2

[15] = tested on: Escherichia coli K-12 ML 1630; assay: as above; assay type: cell-based; details: K12ML1630, nutrient agar, 37° C, 18 hours
Experimental: as §1, §2

Escherichia coli K-12 = assay: as above; assay type: cell-based; details: K12, nutrient agar, 37° C, 18 hours
Experimental: as §1, §2

[16] = tested on: Pseudomonas aeruginosa TI-13; assay: as above; assay type: cell-based; details: TI13, nutrient agar, 37° C, 18 hours
Experimental: as §1, §2

[17] = tested on: Bacillus subtilis NRRL B-558; assay: as above; assay type: cell-based; details: NRRLB558, nutrient agar, 37° C, 18 hours
Experimental: as §3, §1, §2

[18] = tested on: Escherichia coli J 5 R 11-2; assay: as above; assay type: cell-based; details: J5R112, 18 h, read-out: Minimal inhibitory concentration
Experimental: as §3, §1, §2

[19] = tested on: Escherichia coli K-12 C 600 R 135; assay: as above; assay type: cell-based; details: 18 h, read-out: Minimal inhibitory concentration
Experimental: as §3, §1, §2

[20] = tested on: Escherichia coli K-12 R-5; assay: as above; assay type: cell-based; details: K12R5, nutrient agar, 37° C, 18 hours
Experimental: as §3, §1, §2

Escherichia coli NIHJ = assay: as above; assay type: cell-based; details: nutrient agar, 37° C, 18 hours
Experimental: as §3, §1, §2

[21] = tested on: Klebsiella pneumoniae PCI 602; assay: as above; assay type: cell-based; details: PCI602, nutrient agar, 37° C, 18 hours
Experimental: as §3, §1, §2

Proteus rettgeri GN 311 = assay: as above; assay type: cell-based; details: Providencia rettgeri, GN311; nutrient agar, 37° C, 18 hours
Experimental: as §3, §1, §2

Proteus rettgeri GN 466 = assay: as above; assay type: cell-based; details: Providencia rettgeri, GN466; nutrient agar, 37° C, 18 hours
Experimental: as §3, §1, §2

Salmonella typhosa T-63 = assay: as above; assay type: cell-based; details: Salmonella enterica, nutrient agar, 37° C, 18 hours
Experimental: as §3, §1, §2

Sarcina lutea PCI 1001 = assay: as above; assay type: cell-based; details: Micrococcus luteus, PCI1001; nutrient agar, 37° C, 18 hours; read-out: Minimal inhibitory concentration
Experimental: as §3, §1, §2

[22] = tested on: Klebsiella pneumoniae type 22 #3038; assay: as above; assay type: cell-based; details: Klebsiella pneumoniae; nutrient agar, 37° C, 18 hours
Experimental: as §1, §2

[23] = tested on: Mycobacterium smegmatis ATCC 607; assay: as above; assay type: cell-based; details: Mycolicibacterium smegmatis, ATCC607; nutrient agar, 37° C, 48 hours; read-out: Minimal inhibitory concentration
[24] = read-out: minimum inhibitory concentrations
[25] = drug-resistant strain, read-out: minimum inhibitory concentrations
[26] = read-out: Minimal inhibitory concentration

NCC[C@H](O)C(=O)N[C@@H]1C[C@H](N)[C@@H](O[C@H]2O[C@H](CN)[C@@H](O)C[C@H]2N)[C@H](O)[C@H]1O [AHB-deoxyneamine, 1-N-[(S)-4-amino-2-hydroxybutyryl]-3'-deoxyneamine]
MIC [1, 24]: 6.25 µg/mL (≈ 15.3 µM)
MIC [2, 24]: 6.25 µg/mL (≈ 15.3 µM)
MIC [3, 24]: 6.25 µg/mL (≈ 15.3 µM)
MIC [4, 25]: 6.25 µg/mL (≈ 15.3 µM)
MIC [5, 24]: 6.25 µg/mL (≈ 15.3 µM)
MIC [6, 24]: 6.25 µg/mL (≈ 15.3 µM)
MIC [7, 25]: > 100 µg/mL
MIC [8, 24]: 6.25 µg/mL (≈ 15.3 µM)
MIC [9, 24]: 3.12 µg/mL (≈ 7.66 µM)
antibacterial activity compared with parent or reference substance [10]: antibacterial activity as high as that of their parent substances
antibacterial activity [10]: high antibacterial activity against the kanamycin-resistant strains
LD50 (in vivo): > 100 mg/kg
toxicity (mice): toxicity as low as that of their parent substances

NCC[C@H](O)C(=O)N[C@@H]1C[C@H](N)[C@@H](O[C@H]2O[C@H](CN)[C@@H](O)C[C@H]2N)[C@H](O[C@@H]2O[C@H](CO)[C@@H](O)[C@H]2O)[C@H]1O [AHB-deoxyribostamycin, 1-N-[(S)-4-amino-2-hydroxybutyryl]-3'-deoxyribostamycin]
MIC [1, 24]: 3.12 µg/mL (≈ 5.78 µM)
MIC [2, 24]: 1.56 µg/mL (≈ 2.89 µM)
MIC [3, 24]: 0.78 µg/mL (≈ 1.45 µM)
MIC [4, 25]: 1.56 µg/mL (≈ 2.89 µM)
MIC [5, 24]: 0.78 µg/mL (≈ 1.45 µM)
MIC [6, 24]: 1.56 µg/mL (≈ 2.89 µM)
MIC [7, 25]: > 100 µg/mL
MIC [8, 24]: 3.12 µg/mL (≈ 5.78 µM)
MIC [9, 24]: 1.56 µg/mL (≈ 2.89 µM)
antibacterial activity compared with parent or reference substance [10]: antibacterial activity as high as that of their parent substances
antibacterial activity [10]: high antibacterial activity against the kanamycin-resistant strains
LD50 (in vivo): > 100 mg/kg
toxicity (mice): toxicity as low as that of their parent substances

NCC[C@H](O)C(=O)N[C@@H]1C[C@H](N)[C@@H](O[C@H]2O[C@H](CN)CC[C@H]2N)[C@H](O)[C@H]1O[C@H]1O[C@H](CO)[C@@H](O)[C@H](N)[C@H]1O [AHB-dideoxykanamycin B, 1-N-[(S)-4-amino-2-hydroxy-n-butyryl]-3',4'-dideoxykanamycin B]
MIC [11, 24]: 12.5 µg/mL (≈ 22.6 µM)
MIC [1, 24]: 1.56 µg/mL (≈ 2.82 µM)
MIC [2, 24]: 0.78 µg/mL (≈ 1.41 µM)
MIC [12, 24]: 0.39 µg/mL (≈ 0.706 µM)
MIC [13, 24]: 0.78 µg/mL (≈ 1.41 µM)
MIC [14, 24]: 1.56 µg/mL (≈ 2.82 µM)
MIC [3, 24]: 0.78 µg/mL (≈ 1.41 µM)
MIC [4, 25]: 0.78 µg/mL (≈ 1.41 µM)
MIC [15, 24]: 0.78 µg/mL (≈ 1.41 µM)
MIC [5, 24]: 0.39 µg/mL (≈ 0.706 µM)
MIC (Escherichia coli K-12; [24]): 0.78 µg/mL (≈ 1.41 µM)
MIC [6, 24]: 3.12 µg/mL (≈ 5.65 µM)
MIC [8, 24]: 1.56 µg/mL (≈ 2.82 µM)
MIC [16, 24]: 3.12 µg/mL (≈ 5.65 µM)
MIC [9, 24]: 0.78 µg/mL (≈ 1.41 µM)
antibacterial activity compared with parent or reference substance [10]: stronger antibacterial activity than those of kanamycin A and 3',4'-dideoxykanamycin B
antibacterial activity [10]: high antibacterial activity against drug-resistant strains such as Staphylococcus aureus, Escherichia coli and Pseudomonas aeruginosa strains which are resistant to kanamycin and DKB
LD50 (in vivo): > 150 mg/kg
toxicity (mice): toxicity as low as that of kanamycin

CNC[C@H]1O[C@H](O[C@H]2[C@H](O)[C@@H](O[C@H]3O[C@H](CO)[C@@H](O)[C@H](N)[C@H]3O)[C@H](NC(=O)[C@@H](O)CCN)C[C@@H]2N)[C@H](N)C[C@@H]1O [AHB-methyldeoxykanamycin B, 1-N-[(S)-4-amino-2-hydroxybutyryl]-3'-deoxy-6'-N-methylkanamycin B]
MIC [1, 24]: 3.12 µg/mL (≈ 5.35 µM)
MIC [2, 24]: 0.78 µg/mL (≈ 1.34 µM)
MIC [3, 24]: 0.78 µg/mL (≈ 1.34 µM)
MIC [4, 25]: 0.78 µg/mL (≈ 1.34 µM)
MIC [5, 24]: 3.12 µg/mL (≈ 5.35 µM)
MIC [6, 24]: 0.78 µg/mL (≈ 1.34 µM)
MIC [7, 25]: 6.25 µg/mL (≈ 10.7 µM)
MIC [8, 24]: 0.78 µg/mL (≈ 1.34 µM)
MIC [9, 24]: 0.78 µg/mL (≈ 1.34 µM)
antibacterial activity compared with parent or reference substance [10]: antibacterial activity as high as that of their parent substances
antibacterial activity [10]: high antibacterial activity against the kanamycin-resistant strains
LD50 (in vivo): > 100 mg/kg
toxicity (mice): toxicity as low as that of their parent substances

NC[C@H]1O[C@H](O[C@H]2[C@H](O)[C@@H](O)[C@H](N)C[C@@H]2N)[C@H](N)[C@@H](O)[C@@H]1O [Neamine, neamine]
MIC [17]: 0.78 µg/mL (≈ 2.42 µM)
MIC [18]: > 100 µg/mL
MIC [19]: 12.5 µg/mL (≈ 38.8 µM)
MIC [20]: > 100 µg/mL
MIC (Escherichia coli NIHJ): 12.5 µg/mL (≈ 38.8 µM)
MIC [21]: 12.5 µg/mL (≈ 38.8 µM)
MIC (Proteus rettgeri GN 311): 100 µg/mL (≈ 310 µM)
MIC (Proteus rettgeri GN 466): 25 µg/mL (≈ 77.6 µM)
MIC [11, 26]: > 100 µg/mL
MIC (Salmonella typhosa T-63): 3.12 µg/mL (≈ 9.68 µM)
MIC (Sarcina lutea PCI 1001): > 100 µg/mL
MIC [1, 26]: > 100 µg/mL
MIC [2, 26]: 5.25 µg/mL (≈ 16.3 µM)
MIC [12, 26]: 12.5 µg/mL (≈ 38.8 µM)
MIC [13, 26]: 6.25 µg/mL (≈ 19.4 µM)
MIC [14, 26]: > 100 µg/mL
MIC [3, 26]: 12.5 µg/mL (≈ 38.8 µM)
MIC [4, 26]: > 100 µg/mL
MIC [15, 26]: > 100 µg/mL
MIC [5, 26]: 6.25 µg/mL (≈ 19.4 µM)
MIC (Escherichia coli K-12; [26]): 6.25 µg/mL (≈ 19.4 µM)
MIC [22]: > 100 µg/mL
MIC [6, 26]: > 100 µg/mL
MIC [7, 26]: > 100 µg/mL
MIC [8, 26]: > 100 µg/mL
MIC [16, 26]: > 100 µg/mL
MIC [9, 26]: 6.25 µg/mL (≈ 19.4 µM)
MIC [23]: 12.5 µg/mL (≈ 38.8 µM)
